Reference: patent US20170248582A1, “Mixed Spheroids of Melanocytes and Keratinocytes” (Syntivia, priority 2014, published 2017)
“Also recorded” adds a separate entry of the source.

Columns and labels:
[1] = tested on: mixed spheroids of keratinocytes and melanocytes; assay: Assay of melanin on mixed spheroids after treatment (photometry, melanin / total proteins); format: cell-based, Human
Procedure: The cells were lysed in a solution of 1M NaOH+10% DMSO and incubated 30 min at 90° C. A standard range was prepared with synthetic melanin and read-out performed at a wavelength of 405 nm. Assay of total proteins was performed on the lysate of melanin assay using the microBCA kit in accordance with the supplier's instructions. A standard range was prepared with BSA and read-out was performed at a wavelength of 605 nm. The results are expressed in the form of a ratio between the assay of melanin and assay of total proteins. 24 h after seeding, the mixed spheroids of the invention such as prepared in Example 1, and after removal of Matrigel® by washing with PBS, were treated with 300 μM IBMX or 500 μM PTU for 5 days with renewal of treatment at 4 days. The melanin was assayed as explained in Example 3.

[2] = tested on: genes MITF, TYR, TYRP1 and PMEL in mixed spheroids of keratinocytes and melanocytes; assay: Quantification of pigmentation gene expression by quantitative PCR in mixed spheroids; format: cell-based, Human; settings: 300 μM IBMX for 24 h, normalised to GAPDH, vs non-treated control
Procedure: 48 h after their seeding the mixed spheroids of the invention such as prepared in Example 1, and after removal of Matrigel® by washing with PBS, were treated with 300 μM IBMX for 24 h. The spheroids were collected and washed with PBS after 24 h treatment with IBMX. The RNAs were extracted and reverse-transcribed to cDNA. Quantitative PCR was then performed to quantify the expression of the genes MITF, TYR, TYRP1 and PMEL. The expression of these genes was normalised by expression of the GAPDH housekeeping gene and compared with the non-treated control.

| SMILES | induction of the amount of melanin in relation to total proteins ([1]; 300 μM IBMX for 5 days, renewal at 4 days, vs solvent control (DMSO)) | total amount of melanin in the mixed spheroid ([1]; 300 μM IBMX for 5 days, compared with solvent control (DMSO), FIG. 8) | MITF expression, increased by a factor of [2] | expression of MITF gene ([2]; FIG. 9) | expression of PMEL gene ([2]; FIG. 9) | expression of TYR gene ([2]; FIG. 9) | expression of TYRP1 gene ([2]; FIG. 9) | global amount of melanin in the mixed spheroid / melanin production ([1]; 500 μM PTU for 5 days, compared with solvent control (EtOH), FIG. 8) |
| --- | --- | --- | --- | --- | --- | --- | --- | --- |
| CC(C)Cn1c(=O)n(C)c(=O)c2[nH]cnc21 [IBMX, 3-isobutyl-1-methylxanthine] | 50% | increase in the total amount of melanin | 5 | induced; also recorded: expression increased | induced; also recorded: increased | induced; also recorded: increased | induced; also recorded: increased | – |
| CCCc1cc(=O)[nH]c(=S)[nH]1 [PTU, propylthiouracil] | – | – | – | – | – | – | – | inhibits melanin production; also recorded: decrease in the global amount of melanin |
